Measured values reported in patent US20260159512A1, “BCAT2 INHIBITORS” (AGIOS PHARMACEUTICALS, INC., priority 2021, published 2026).
Where “and” joins values, the source holds several entries; their conditions need not be identical. Equal values may be shown once.

Assays:
Conditions in all cases: average where tested multiple times
[1] = target: T1, BCAT2 (Homo sapiens, UniProt O15382); test: BCAT2 in vitro enzyme inhibition assay (resazurin/diaphorase-coupled fluorescence); type: biochemical
T1 sequence (O15382 28-392): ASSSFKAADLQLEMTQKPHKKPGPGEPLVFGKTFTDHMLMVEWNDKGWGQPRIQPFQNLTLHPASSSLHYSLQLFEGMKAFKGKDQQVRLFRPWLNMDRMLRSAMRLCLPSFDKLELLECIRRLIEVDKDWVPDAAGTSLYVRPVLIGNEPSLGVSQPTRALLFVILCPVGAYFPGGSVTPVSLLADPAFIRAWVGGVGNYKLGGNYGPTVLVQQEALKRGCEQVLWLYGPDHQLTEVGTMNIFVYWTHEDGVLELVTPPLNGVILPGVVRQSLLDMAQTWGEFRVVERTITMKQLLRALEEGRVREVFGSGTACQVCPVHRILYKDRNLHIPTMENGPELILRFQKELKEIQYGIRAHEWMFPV
Summary of the method: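 Coupled fluorescence readout: glutamate formed from L-leucine/α-ketoglutarate transamination drives GDH/NAD/diaphorase reduction of resazurin (Ex 540/Em 590). Human BCAT2 was first exposed 1 h at room temperature to compound, top final 100 μM in 3-fold, 10-point series; substrate reaction ran 1 h before SDS quench, in technical duplicate with DMSO max and enzyme-free min controls.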

[2] = target: T2, hBCAT1 (Homo sapiens, UniProt P54687); test: BCAT1 in vitro enzyme inhibition assay (resazurin/diaphorase-coupled fluorescence); type: biochemical
T2 sequence (P54687 1-386): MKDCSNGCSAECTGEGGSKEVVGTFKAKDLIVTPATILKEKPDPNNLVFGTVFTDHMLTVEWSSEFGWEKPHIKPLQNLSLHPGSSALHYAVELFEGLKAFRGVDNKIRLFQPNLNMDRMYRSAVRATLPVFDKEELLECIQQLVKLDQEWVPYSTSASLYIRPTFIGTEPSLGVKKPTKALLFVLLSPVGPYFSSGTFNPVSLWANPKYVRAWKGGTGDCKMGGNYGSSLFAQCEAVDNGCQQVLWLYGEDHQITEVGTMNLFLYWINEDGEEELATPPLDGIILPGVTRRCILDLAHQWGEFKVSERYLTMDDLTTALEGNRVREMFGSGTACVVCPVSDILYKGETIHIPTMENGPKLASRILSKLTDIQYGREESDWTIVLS
Summary of the method: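 Ten-point, 3-fold compound series (top final 100 μM, delivered 1:50 from 50× DMSO stocks) tested against hBCAT1. Inhibition detected via diaphorase-coupled resazurin fluorescence, duplicate wells, with values from repeated runs averaged.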

[3] = target: T1, BCAT2; test: BCAT2 in vitro cell inhibition using engineered A549 cells (KMV cell assay, 13C6-KMV by LC-MS/MS); type: cell-based; set-up: The result was an engineered A549 cell line that expressed endogenous BCAT2; endogenous in cells; host or cells: A549 cells with MUT and BCAT1 knocked out by CRISPR/CAS9; key to BCAT2 Cell Inhibition: A: less than or equal to 0.100 μM; B: greater than 0.100 and less than or equal to 0.500 μM; C: greater than 0.500 and less than or equal to 1.000 μM; d: greater than 1.000 μM; E: no fit

Compound	IC50 [1] [nM]	IC50 [2] [nM]	IC50 [3]	BCAT2 Cell Inhibition [3]
O=C(N[C@H]1CCC[C@@H](n2c(-c3ncccc3F)nc3cnc(-c4ncco4)cc32)C1)c1ccc(Br)s1 [Example 6, 5-bromo-N-((1S,3R)-3-(2-(3-fluoropyridin-2-yl)-6-(oxazol-2-yl)-1H-imidazo[4,5-c]pyridin-1-yl)cyclohexyl)thiophene-2-carboxamide]	≤ 100	< 500	≤ 100 nM	–
O=C(N[C@H]1CCC[C@@H](n2c(-c3ccccc3F)nc3cnc(-n4nccn4)cc32)[C@@H]1O)c1ncc(Cl)s1 (single isomer, unassigned) [Example 113]	≤ 100	< 500	≤ 100 nM	–
CO[C@@H]1C[C@@H](NC(=O)c2ncc(Cl)s2)C[C@@H](n2c(CC(C)C)nc3cnc(-c4ccccn4)cc32)C1 (stereo in doubt) [Example 426, 5-chloro-N-((1S,3R,5R)-3-(2-isobutyl-6-(pyridin-2-yl)-1H-imidazo[4,5-c]pyridin-1-yl)-5-methoxycyclohexyl)thiazole-2-carboxamide]	≤ 100	500 to 1000	100 to 500 nM	–
O=C(N[C@H]1CCC[C@@H](n2c(-c3ncccc3F)nc3cnc(-n4cncn4)cc32)C1)c1ncc(C(F)F)s1 [Example 28, 5-(difluoromethyl)-N-((1S,3R)-3-(2-(3-fluoropyridin-2-yl)-6-(1H-1,2,4-triazol-1-yl)-1H-imidazo[4,5-c]pyridin-1-yl)cyclohexyl)thiazole-2-carboxamide]	≤ 100	1000 to 5000	500 to 1000 nM	–
CC(C)Cc1nc2cnc(-c3nc[nH]n3)cc2n1[C@@H]1CCC[C@H](NC(=O)c2ccc(Cl)s2)C1 [Example 317, 5-chloro-N-((1S,3R)-3-(2-isobutyl-6-(1H-1,2,4-triazol-3-yl)-1H-imidazo[4,5-c]pyridin-1-yl)cyclohexyl)thiophene-2-carboxamide]	≤ 100	< 500	≤ 100 nM	–
O=C(N[C@H]1CCC[C@@H](n2c(-c3ccccc3F)nc3cnc(-n4nccn4)cc32)C1)c1ccc(Cl)s1 [Example 72, 5-chloro-N-((1S,3R)-3-(2-(2-fluorophenyl)-6-(2H-1,2,3-triazol-2-yl)-1H-imidazo[4,5-c]pyridin-1-yl)cyclohexyl)thiophene-2-carboxamide]	≤ 100	< 500	≤ 100 nM	–
CC(C)[C@@H](O)c1nc2cnc(-c3ccccn3)cc2n1[C@@H]1CCC[C@H](NC(=O)c2ncc(Cl)s2)C1 [Example 305, 5-chloro-N-((1S,3R)-3-(2-((R)-1-hydroxy-2-methylpropyl)-6-(pyridin-2-yl)-1H-imidazo[4,5-c]pyridin-1-yl)cyclohexyl)thiazole-2-carboxamide]	≤ 100	< 500	100 to 500 nM	–
CO[C@H]1C[C@H](NC(=O)c2ncc(Cl)s2)C[C@H](n2c(CC(C)C)nc3cnc(-c4nc(C)co4)cc32)C1 [Example 409, 5-chloro-N-((1R,3S,5S)-3-(2-isobutyl-6-(4-methyloxazol-2-yl)-1H-imidazo[4,5-c]pyridin-1-yl)-5-methoxycyclohexyl)thiazole-2-carboxamide]	≤ 100	500 to 1000	100 to 500 nM	–
O=C(N[C@H]1CCC[C@@H](n2c(-c3ncccc3F)nc3cnc(-c4nc[nH]n4)cc32)C1)c1ncc(Cl)s1 [Example 175, 5-chloro-N-((1S,3R)-3-(2-(3-fluoropyridin-2-yl)-6-(1H-1,2,4-triazol-3-yl)-1H-imidazo[4,5-c]pyridin-1-yl)cyclohexyl)thiazole-2-carboxamide]	≤ 100	< 500	≤ 100 nM	–
O=C(N[C@H]1CCC[C@@H](n2c(-c3ncccc3F)nc3cnc(-n4nccn4)nc32)C1)c1ncc(C(F)F)s1 [Example 58, 5-(difluoromethyl)-N-((1S,3R)-3-(8-(3-fluoropyridin-2-yl)-2-(2H-1,2,3-triazol-2-yl)-9H-purin-9-yl)cyclohexyl)thiazole-2-carboxamide]	≤ 100	1000 to 5000	100 to 500 nM	–
Cc1cccnc1-c1nc2cnc(-n3nccn3)cc2n1[C@@H]1CCC[C@H](NC(=O)c2ncc(C(F)F)s2)C1 [Example 60, 5-(difluoromethyl)-N-((1S,3R)-3-(2-(3-methylpyridin-2-yl)-6-(2H-1,2,3-triazol-2-yl)-1H-imidazo[4,5-c]pyridin-1-yl)cyclohexyl)thiazole-2-carboxamide]	≤ 100	500 to 1000	100 to 500 nM	–
O=C(N[C@H]1CCC[C@@H](n2c(-c3ccccc3F)nc3cnc(-c4cccnc4)cc32)C1)c1ncc(Cl)s1 [Example 180, 5-chloro-N-((1S,3R)-3-(2-(2-fluorophenyl)-6-(pyridin-3-yl)-1H-imidazo[4,5-c]pyridin-1-yl)cyclohexyl)thiazole-2-carboxamide]	≤ 100	1000 to 5000	100 to 500 nM	–

Further lines, results first:

IC50 [1] [nM]	IC50 [2] [nM]	IC50 [3]	BCAT2 Cell Inhibition [3]	Compound
≤ 100	1000 to 5000	500 to 1000 nM	–	CC(C)C(F)c1nc2cnc(-c3ccccn3)cc2n1[C@@H]1CCC[C@H](NC(=O)c2ncc(Cl)s2)C1 (stereo partly drawn) [Example 322, 5-chloro-N-((1S,3R)-3-(2-(1-fluoro-2-methylpropyl)-6-(pyridin-2-yl)-1H-imidazo[4,5-c]pyridin-1-yl)cyclohexyl)thiazole-2-carboxamide]
≤ 100	500 to 1000	≤ 100 nM and 100 to 500 nM	–	O=C(N[C@H]1CCC[C@@H](n2c(-c3ccccn3)nc3cnc(-n4cncn4)cc32)C1)c1ccc(Br)s1 [Example 9, 5-bromo-N-((1S,3R)-3-(2-(pyridin-2-yl)-6-(1H-1,2,4-triazol-1-yl)-1H-imidazo[4,5-c]pyridin-1-yl)cyclohexyl)thiophene-2-carboxamide]
≤ 100	< 500	≤ 100 nM	–	CC1(Cc2nc3cnc(-c4nc[nH]n4)cc3n2[C@@H]2CCC[C@H](NC(=O)c3ncc(Cl)s3)C2)CC1 [Example 379, 5-chloro-N-((1S,3R)-3-(2-((1-methylcyclopropyl)methyl)-6-(1H-1,2,4-triazol-3-yl)-1H-imidazo[4,5-c]pyridin-1-yl)cyclohexyl)thiazole-2-carboxamide]
≤ 100	1000 to 5000	> 1000 nM	–	CNc1nccc(-c2cc3c(cn2)nc(CC(C)C)n3[C@@H]2CCC[C@H](NC(=O)c3ncc(Cl)s3)C2)n1 [Example 316, 5-chloro-N-((1S,3R)-3-(2-isobutyl-6-(2-(methylamino)pyrimidin-4-yl)-1H-imidazo[4,5-c]pyridin-1-yl)cyclohexyl)thiazole-2-carboxamide]
≤ 100	1000 to 5000	≤ 100 nM	–	C#Cc1ccc(C(=O)N[C@H]2CCC[C@@H](n3c(CC(C)C)nc4cnc(-c5nc[nH]n5)cc43)C2)s1 [Example 341, 5-ethynyl-N-((1S,3R)-3-(2-isobutyl-6-(1H-1,2,4-triazol-3-yl)-1H-imidazo[4,5-c]pyridin-1-yl)cyclohexyl)thiophene-2-carboxamide]
≤ 100	1000 to 5000	500 to 1000 nM	–	CO[C@@H]1[C@@H](NC(=O)c2ncc(Cl)s2)CCC[C@H]1n1c(-c2ccccc2F)nc2cnc(-c3nc[nH]n3)cc21 [Example 234, 5-chloro-N-((1S,2R,3R)-3-(2-(2-fluorophenyl)-6-(1H-1,2,4-triazol-3-yl)-1H-imidazo[4,5-c]pyridin-1-yl)-2-methoxycyclohexyl)thiazole-2-carboxamide]
> 1000	> 5000	–	E	Cc1nc2cnc(-n3ccnn3)cc2n1[C@@H]1CCC[C@H](NC(=O)c2ccc(Br)s2)C1 [Example 52, 5-bromo-N-((1S,3R)-3-(2-methyl-6-(1H-1,2,3-triazol-1-yl)-1H-imidazo[4,5-c]pyridin-1-yl)cyclohexyl)thiophene-2-carboxamide]
